Source: publication PMC3799874 (Bioorganic & medicinal chemistry letters, 2012)
Marks after values point to notes of the source that are not given here.

Assays:
[1] = biological target: T1, rat TRPV1 heterologously expressed in Chinese hamster ovary (CHO) cells (Rattus norvegicus, UniProt O35433); format: binding
[2] = biological target: T1, rat TRPV1 heterologously expressed in Chinese hamster ovary (CHO) cells; format: cell-based

T1 sequence (O35433 whole entry): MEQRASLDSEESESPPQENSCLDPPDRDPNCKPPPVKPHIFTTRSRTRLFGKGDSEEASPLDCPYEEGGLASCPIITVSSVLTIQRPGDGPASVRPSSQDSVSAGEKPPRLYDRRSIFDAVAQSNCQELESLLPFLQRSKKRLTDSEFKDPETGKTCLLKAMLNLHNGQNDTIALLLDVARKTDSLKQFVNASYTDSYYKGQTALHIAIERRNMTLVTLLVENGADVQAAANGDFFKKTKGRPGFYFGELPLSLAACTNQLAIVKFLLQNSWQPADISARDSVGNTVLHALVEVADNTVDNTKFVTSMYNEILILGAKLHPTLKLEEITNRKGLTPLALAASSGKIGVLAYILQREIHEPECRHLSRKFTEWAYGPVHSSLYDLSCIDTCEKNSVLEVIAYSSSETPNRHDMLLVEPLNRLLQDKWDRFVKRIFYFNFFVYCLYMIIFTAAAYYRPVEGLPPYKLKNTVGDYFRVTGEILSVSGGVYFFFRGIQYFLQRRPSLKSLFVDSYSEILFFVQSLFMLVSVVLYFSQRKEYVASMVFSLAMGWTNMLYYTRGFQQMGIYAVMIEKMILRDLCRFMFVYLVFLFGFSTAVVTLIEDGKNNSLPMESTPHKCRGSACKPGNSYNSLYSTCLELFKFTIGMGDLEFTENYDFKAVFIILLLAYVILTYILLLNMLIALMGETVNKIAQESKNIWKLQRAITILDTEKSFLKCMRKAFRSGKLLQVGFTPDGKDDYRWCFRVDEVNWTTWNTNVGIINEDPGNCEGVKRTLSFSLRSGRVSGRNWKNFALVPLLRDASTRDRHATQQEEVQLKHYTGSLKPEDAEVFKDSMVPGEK

SMILES	enhancement in binding affinity compared to non-methylated parent [1]	fractional calcium uptake compared with that induced by 300 nM capsaicin [2]	further results
COc1cc(C(C)C(=O)NCc2ccc(C(C)(C)C)cc2)ccc1O (stereo not shown) [8a]	2 fold	–	enhancement in agonism compared to non-methylated parent [2]: 3 fold
CC(C(=O)NCc1ccc(C(C)(C)C)cc1)c1ccc(O)c(F)c1 (stereo not shown) [8b]	ca. 4.5 fold	–	–
CC(C(=O)NCc1ccc(C(C)(C)C)cc1)c1ccc(O)c(Cl)c1 (stereo not shown) [8c]	~4 fold	(77%) ^a	–
CC(C)(C)c1ccc(CNC(=O)Cc2ccc(OCCN)c(F)c2)cc1 [10b]	–	(63%) ^a	–
CC(C)(C)c1ccc(CNC(=O)Cc2ccc(OCCN)c(Cl)c2)cc1 [10c]	–	(36%) ^a	–
CC(C(=O)NCc1ccc(C(C)(C)C)cc1)c1ccc(OCCN)c(F)c1 (stereo not shown) [14b]	–	(91%) ^a	–
CC(C(=O)NCc1ccc(C(C)(C)C)cc1)c1ccc(OCCN)c(Cl)c1 (stereo not shown) [14c]	–	(75%) ^a	–
CCCCCCCCCNC(=O)C(C)c1ccc(O)c(OC)c1 (stereo not shown) [compound 19]	1.5–2 fold	–	enhancement in agonism compared to non-methylated parent [2]: 1.5–2 fold
COc1cc(C(C)C(=O)NCCCc2ccc(C)c(C)c2)ccc1O (stereo not shown) [compound 20]	1.5–2 fold	–	enhancement in agonism compared to non-methylated parent [2]: 1.5–2 fold
COc1cc(C(C)C(=O)NCCCc2ccc(C)c(C)c2)ccc1OCCN (stereo not shown) [compound 22]	–	–	increase in receptor activity compared to DA-5018 [1]: ca. 2 fold
COc1cc(C(C)NC(=S)NCc2ccc(C(C)(C)C)cc2)ccc1O (stereo not shown) [compound 32]	–	–	reduction (loss) in binding affinity compared to non-methylated parent [1]: 3 fold
COc1cc(C(C)NC(=S)NCc2ccc(C(C)(C)C)cc2)ccc1OCCN (stereo not shown) [compound 36]	–	–	reduction (loss) in binding affinity compared to non-methylated parent [1]: 17 fold
